Reference: patent US10760110B2, “Antibiotic testing and screening system” (priority 2017, dated 2020)
Where two headings read alike, the source gives them in different places.

Columns and labels:
[1] = test system: K. pneumoniae NVT1001 and its ΔompK35/36 and/or ΔramR mutants; test: Etest MIC, OmpK35/36 loss and AcrAB-TolC overexpression (ΔramR) strains (Table 6); format: cell-based, Klebsiella pneumoniae; conditions: Klebsiella pneumoniae
Protocol: (§1) The MICs of antibiotics were determined using the Etest (Biodisk AB, Sweden) according to the manufacturer's instructions. The MICs from the Etest, which fall between standard two-fold dilutions, were rounded up to the next highest two-fold value. The MICs of ceftazidime and cefotaxime against K. pneumoniae NVT1001 harbouring the pACYC177 plasmid with blaOXA-48 were further determined using a broth microdilution test according to the recommendations of the CLSI,^25 and the results were interpreted according to the breakpoints established by the CLSI in 2017.^25 Meanwhile, due to the lack of CLSI breakpoints in 2016 and 2017, the results for cephalothin were interpreted according to the breakpoints established by the CLSI in 2015,^26 and the results for moxifloxacin were interpreted according to the breakpoints established by the EUCAST in 2017.^27

[2] = test system: K. pneumoniae NVT1001 strains with aminoglycoside resistance plasmids; test: Etest MIC of aminoglycosides, aminoglycoside-modifying enzyme or 16S rRNA methylase (Table 13); format: cell-based, Klebsiella pneumoniae; conditions: for effects on the MIC / resistance: production of 16S rRNA methylase, ArmA and RmtB
Protocol: (§2) DNA fragments of the resistance genes along with their flanking regions were amplified from clinical plasmids via PCR with specific primer pairs. The resulting PCR fragments were digested and then cloned into the plasmid pACYC177 or pACYC184. The resulting plasmids were then transformed into K. pneumoniae strain NVT1001 via electroporation. The recombinant bacteria were plated onto LB agar plates containing kanamycin (50 mg/L) or chloramphenicol (50 mg/L), and the presence of the cloned gene was confirmed via PCR and DNA sequencing.
as §1

[3] = test system: A. baumannii KW1 strains with aminoglycoside resistance plasmids; test: Etest MIC of aminoglycosides, aminoglycoside-modifying enzyme or 16S rRNA methylase (Table 19); format: cell-based, Acinetobacter baumannii; conditions: for effects on the MIC: production of aminoglycoside-modifying enzymes; for effects on the MIC / resistance: production of 16S rRNA methylase, ArmA
Protocol: (§3) DNA fragments of the resistance genes along with their flanking regions were amplified from clinical plasmids via PCR with specific primer pairs. The resulting PCR fragments were digested and then cloned into the plasmid pYMAb5 or pYMAb5Tc. The resulting plasmids were then transformed into A. baumannii KW1 via electroporation.
as §1

[4] = test system: K. pneumoniae NVT1001 and ΔramR strains with tet resistance gene plasmids; test: Etest MIC of tetracyclines, AcrAB-TolC overexpression (ΔramR) and/or tet resistance gene (Table 14); format: cell-based, Klebsiella pneumoniae; conditions: Klebsiella pneumoniae
Protocol: as §2, §1

[5] = test system: K. pneumoniae NVT1001 ΔramRΔompK35/36 mutant and its revertants; test: Etest MIC, ΔramRΔompK35/36 mutant and its revertants (Table 7); format: cell-based; conditions: Klebsiella pneumoniae
Text: The allelic-exchange method was used to restore the wild-type gene in the K. pneumoniae NVT1001 mutants with constructed chromosome-mediated resistance mechanisms, as described by Tsai et al.^19 Briefly, a DNA fragment of the entire wild-type gene sequence along with flanking regions was amplified from K. pneumoniae NVT1001 using PCR with specific primers. The resulting PCR fragment was digested and then cloned into pUT-KB. For homologous recombination, this plasmid was transformed into E. coli S17-1 λpir^23 via electroporation and mobilized into the K. pneumoniae NVT1001 mutant via conjugation. […] After incubation in 20 mL BHI broth for 6 hours at 37° C. in the absence of kanamycin, the fully grown cultures were spread onto LB agar plates supplemented with 10% sucrose. After the double crossover occurred, the sucrose-resistant and kanamycin-susceptible colonies were selected, and the restoration of the wild-type gene was confirmed via DNA sequencing.
as §1

[6] = test system: A. baumannii KW1 strains with tet resistance gene plasmids; test: Etest MIC of tetracyclines, tet resistance gene (Table 20); format: cell-based, Acinetobacter baumannii; conditions: for MIC: Acinetobacter baumannii; for increase in the MIC: production of Tet(A), Tet(B) or Tet(C)
Protocol: as §3, §1

[7] = ΔramRΔ35/36, ΔramRΔompK35/36 mutant
[8] = NVT1001, Tet(A) on pACYC177, read-out: MIC
[9] = NVT1001, Tet(B) on pACYC177, read-out: MIC
[10] = NVT1001, Tet(C) on pACYC177, read-out: MIC
[11] = NVT1001, Tet(D) on pACYC177, read-out: MIC
[12] = NVT1001, Tet(M) on pACYC177, read-out: MIC
[13] = NVT1001, no supplemental plasmid, read-out: MIC
[14] = ΔramRΔompK35/36::ompK35/36 revertant
[15] = ΔramRΔompK35/36::ompK35 revertant
[16] = ΔramRΔompK35/36::ompK36 revertant
[17] = ΔramRΔompK35/36::ramR revertant
[18] = ΔramRΔompK35/36::ramR::ompK35/36 revertant
[19] = ΔramRΔompK35/36::ramR::ompK35 revertant
[20] = ΔramRΔompK35/36::ramR::ompK36 revertant

NCC[C@H](O)C(=O)N[C@@H]1C[C@H](N)[C@@H](O[C@H]2O[C@H](CN)[C@@H](O)[C@H](O)[C@H]2O)[C@H](O)[C@H]1O[C@H]1O[C@H](CO)[C@@H](O)[C@H](N)[C@H]1O [Amikacin]
2 µg/mL: MIC ([1]; WT, NVT1001, read-out: MIC) | MIC ([1]; Δ35, ΔompK35 mutant) | MIC ([1]; Δ35/36, ΔompK35/36 mutant) | MIC ([1]; Δ36, ΔompK36 mutant) | MIC ([1]; ΔramR mutant) | MIC ([1]; ΔramRΔ35, ΔramRΔompK35 mutant) | MIC [1, 7] | MIC ([1]; ΔramRΔ36, ΔramRΔompK36 mutant)
susceptible: susceptibility category ([2]; strains with different aminoglycoside-modifying enzymes)
no increase effects: effects on the MIC [3]

C[C@H]1c2cccc(O)c2C(=O)C2=C(O)[C@]3(O)C(=O)C(C(N)=O)=C(O)[C@@H](N(C)C)[C@@H]3[C@@H](O)[C@@H]21 [Doxycycline, doxycycline]
64 µg/mL: MIC ([1]; ΔramR mutant) | MIC ([1]; ΔramRΔ35, ΔramRΔompK35 mutant) | MIC ([1]; ΔramRΔ36, ΔramRΔompK36 mutant) | MIC ([4]; ΔramR, no supplemental plasmid) | MIC [5, 14] | MIC [5, 15] | MIC [5, 16]
12 µg/mL: MIC ([6]; KW1, Tet(A) on pYMAb5)
16 µg/mL: MIC [4, 10]
4 µg/mL: MIC ([1]; WT, NVT1001, read-out: MIC) | MIC ([1]; Δ35, ΔompK35 mutant) | MIC ([1]; Δ35/36, ΔompK35/36 mutant) | MIC ([1]; Δ36, ΔompK36 mutant) | MIC [4, 13] | MIC [5, 17] | MIC [5, 18] | MIC [5, 19] | MIC [5, 20]
4 fold: increase in the MIC [6]
32 µg/mL: MIC [4, 12] | MIC ([6]; KW1, Tet(B) on pYMAb5)
256 µg/mL: MIC ([4]; ΔramR, Tet(D) on pACYC177)
> 256 µg/mL: MIC [4, 8] | MIC [4, 9] | MIC ([4]; ΔramR, Tet(A) on pACYC177) | MIC ([4]; ΔramR, Tet(B) on pACYC177)
192 µg/mL: MIC ([6]; KW1, Tet(M) on pYMAb5)
128 µg/mL: MIC [1, 7] | MIC [4, 11] | MIC ([4]; ΔramR, Tet(C) on pACYC177) | MIC ([4]; ΔramR, Tet(M) on pACYC177) | MIC ([5]; ΔramRΔompK35/36 mutant)
0.75 µg/mL: MIC ([6]; KW1, no supplemental plasmid) | MIC ([6]; KW1 with shuttle vector pYMAb5)

CN(C)c1ccc(O)c2c1C[C@H]1C[C@H]3[C@H](N(C)C)C(O)=C(C(N)=O)C(=O)[C@@]3(O)C(O)=C1C2=O [Minocycline]
64 µg/mL: MIC ([1]; ΔramR mutant) | MIC ([4]; ΔramR, Tet(C) on pACYC177) | MIC ([4]; ΔramR, no supplemental plasmid)
0.38 µg/mL: MIC ([6]; KW1, no supplemental plasmid)
1.5 µg/mL: MIC ([6]; KW1, Tet(A) on pYMAb5) | MIC ([6]; KW1, Tet(B) on pYMAb5)
4 fold: increase in the MIC [6]
0.25 µg/mL: MIC ([6]; KW1 with shuttle vector pYMAb5)
> 256 µg/mL: MIC ([4]; ΔramR, Tet(A) on pACYC177) | MIC ([4]; ΔramR, Tet(B) on pACYC177) | MIC ([4]; ΔramR, Tet(D) on pACYC177) | MIC ([4]; ΔramR, Tet(M) on pACYC177)
2 µg/mL: MIC ([6]; KW1, Tet(M) on pYMAb5)
32 µg/mL: MIC [4, 8] | MIC [4, 9] | MIC [4, 12]
4 µg/mL: MIC ([1]; WT, NVT1001, read-out: MIC) | MIC ([1]; Δ35, ΔompK35 mutant) | MIC ([1]; Δ35/36, ΔompK35/36 mutant) | MIC ([1]; Δ36, ΔompK36 mutant) | MIC [4, 10] | MIC [4, 13] | MIC [5, 17] | MIC [5, 18] | MIC [5, 19] | MIC [5, 20]
128 µg/mL: MIC ([1]; ΔramRΔ35, ΔramRΔompK35 mutant) | MIC [1, 7] | MIC ([1]; ΔramRΔ36, ΔramRΔompK36 mutant) | MIC [4, 11] | MIC [5, 14] | MIC [5, 15] | MIC [5, 16] | MIC ([5]; ΔramRΔompK35/36 mutant)

CN[C@@H]1[C@H](O)[C@H](NC)[C@H]2O[C@@]3(O)C(=O)C[C@@H](C)O[C@H]3O[C@@H]2[C@H]1O [Spectinomycin]
not associated with observable effects: effects on the MIC / resistance [2]
not associated with increase effects: effects on the MIC / resistance [3]
16 µg/mL: MIC ([1]; WT, NVT1001, read-out: MIC) | MIC ([1]; Δ35, ΔompK35 mutant) | MIC ([1]; Δ35/36, ΔompK35/36 mutant) | MIC ([1]; Δ36, ΔompK36 mutant) | MIC ([1]; ΔramR mutant) | MIC ([1]; ΔramRΔ35, ΔramRΔompK35 mutant) | MIC [1, 7] | MIC ([1]; ΔramRΔ36, ΔramRΔompK36 mutant)

[H]/N=C(/N)N[C@H]1[C@H](O)[C@@H](O)[C@H](O[C@@H]2O[C@@H](C)[C@](O)(C=O)[C@H]2O[C@@H]2O[C@@H](CO)[C@H](O)[C@@H](O)[C@@H]2NC)[C@@H](N/C(N)=N\[H])[C@@H]1O [Streptomycin]
2 µg/mL: MIC ([1]; WT, NVT1001, read-out: MIC) | MIC ([1]; ΔramR mutant) | MIC ([1]; ΔramRΔ35, ΔramRΔompK35 mutant)
not associated with observable effects: effects on the MIC / resistance [2]
4 µg/mL: MIC ([1]; Δ35, ΔompK35 mutant) | MIC ([1]; Δ35/36, ΔompK35/36 mutant) | MIC ([1]; Δ36, ΔompK36 mutant) | MIC [1, 7] | MIC ([1]; ΔramRΔ36, ΔramRΔompK36 mutant)
not associated with increase effects: effects on the MIC / resistance [3]
no increase effects: effects on the MIC [3]

NC[C@H]1O[C@H](O[C@H]2[C@H](O)[C@@H](O[C@H]3O[C@H](CO)[C@@H](O)[C@H](N)[C@H]3O)[C@H](N)C[C@@H]2N)[C@H](N)C[C@@H]1O [TOB]
0.5 µg/mL: MIC ([2]; NVT1001, no supplemental plasmid) | MIC ([2]; NVT1001 with ANT(3″)-Ia on pACYC184) | MIC ([2]; NVT1001 with APH(3′)-IIa on pACYC184) | MIC ([2]; NVT1001 with StrA-StrB on pACYC184) | MIC ([3]; KW1, no supplemental plasmid) | MIC ([3]; KW1 with AAC(3)-IIa on pYMAb5Tc) | MIC ([3]; KW1 with ANT(3”)-Ia on pYMAb5Tc) | MIC ([3]; KW1 with APH(3')-Ia on pYMAb5Tc) | MIC ([3]; KW1 with APH(3')-VIa on pYMAb5Tc) | MIC ([3]; KW1 with shuttle vector pYMAb5Tc)
4 µg/mL: MIC ([2]; NVT1001 with AAC(3)-IId on pACYC184)
2 µg/mL: MIC ([3]; KW1 with ANT(2”)-Ia on pYMAb5Tc)
64 µg/mL: MIC ([2]; NVT1001 with ANT(2″)-Ia on pACYC184)
1 µg/mL: MIC ([2]; NVT1001 with APH(3′)-Ia on pACYC184)
>256 µg/mL: MIC ([2]; NVT1001 with AAC(3)-IVa on pACYC184) | MIC ([2]; NVT1001 with ArmA on pACYC184) | MIC ([2]; NVT1001 with RmtB on pACYC184) | MIC ([3]; KW1 with ArmA on pYMAb5Tc)
8 µg/mL: MIC ([2]; NVT1001 with AAC(6′)-Ib-cr on pACYC184)
